Counter-ions that a name gives are not always drawn.
Experiments:
[1] = Cytotoxicity Assay (CellTiter-Glo); assay type: cell-based; settings: human, Hep G2 cells (ATCC HB-8065); 24 h exposure, cell viability; read-out: HepG2 CC50
Procedure: Cytotoxicity was evaluated in human Hep G2 cells (ATCC HB-8065) seeded at a density of 2×10^5 cells per well and incubated for 24 h at 37° C., 5% CO2. Cells were exposed to a doubling dilution series of test article. After 24 h exposure, the viability of the cells was determined using CellTiter-Glo® (Promega, Wis., USA) according to the manufacturer's instructions. Results are reported as the concentration of test article required to reduce cell viability by 50% (CC50).

[2] = target: NDM-1 (Klebsiella pneumoniae, UniProt C7C422); assay: metallo-β-lactamase inhibition assay (nitrocefin); assay type: biochemical; settings: 1.5 nM NDM-1, 100 μM nitrocefin, 37° C., pH 7.5
NDM-1, sequence (C7C422 whole entry, looked up, species assumed): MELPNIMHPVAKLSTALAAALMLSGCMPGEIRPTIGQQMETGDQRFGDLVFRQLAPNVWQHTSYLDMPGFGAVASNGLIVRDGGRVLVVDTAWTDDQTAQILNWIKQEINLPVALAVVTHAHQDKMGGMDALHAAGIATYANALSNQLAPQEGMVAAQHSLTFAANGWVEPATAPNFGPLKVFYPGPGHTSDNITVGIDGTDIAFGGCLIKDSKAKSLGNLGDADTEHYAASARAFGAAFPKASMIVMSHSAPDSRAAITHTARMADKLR
Procedure: Compounds of the invention were tested in a metallo-β-lactamase inhibition assay to investigate mechanism of action of the compounds. Results are reported as the concentration of test article required to inhibit enzyme activity by 50% (IC50).
Inhibition of metallo-β-lactamase enzyme function was performed at 37° C. in buffer at pH 7.5 (50 mM HEPES, 150 mM NaCl, 0.1 mM ZnSO4, 20 μg/mL PEG4000), containing 1.5 nM NDM-1, 100 μM nitrocefin, and a range of concentrations of compound. Absorbance at 490 nm was measured using a BMG LABTECH FLUOstar Omega microplate reader every minute for 30 minutes. IC50S were determined from the average increase in OD per minute versus the Log 10 concentration of compound using GraphPad Prism.

[3] = tested on: K. pneumoniae NCTC13440 VIM-1; assay: Imipenem combination MIC, broth microdilution; assay type: cell-based; settings: imipenem only (baseline)
Procedure: (§1) MICs were determined by exposing bacteria to serial dilutions of antibacterial agents in MHB-II (cation-adjusted Mueller-Hinton Broth pH 7.4) according to Clinical and Laboratory Standards Institute (CLSI) broth microdilution guidelines (Cockerill et al., 2012).
(§2) Combination MIC were performed as described for MIC determinations with the addition of 4 mg/L test article to MHB-II.
(§3) Compounds of the invention were also tested in combination with imipenem.

[4] = tested on: K. pneumoniae ATCC BAA2146 NDM-1; assay: Imipenem combination MIC, broth microdilution; assay type: cell-based; settings: imipenem only (baseline)
Procedure: as §1, §2, §3

[5] = tested on: E. coli ATCCBAA-2452 NDM-1; assay: Imipenem combination MIC, broth microdilution; assay type: cell-based; settings: imipenem only (baseline)
Procedure: as §1, §2, §3

[6] = tested on: E. coli NCTC13476 IMP; assay: Imipenem combination MIC, broth microdilution; assay type: cell-based; settings: imipenem only (baseline)
Procedure: as §1, §2, §3

[7] = tested on: A. baumannii SG698 NDM-1; assay: Imipenem combination MIC, broth microdilution; assay type: cell-based; settings: imipenem only (baseline)
Procedure: as §1, §2, §3

[8] = tested on: K. pneumoniae NCTC13440 VIM-1; assay: Meropenem combination MIC, broth microdilution; assay type: cell-based; settings: meropenem only (baseline)
Procedure: as §1, §2

[9] = tested on: K. pneumoniae ATCC BAA2146 NDM-1; assay: Meropenem combination MIC, broth microdilution; assay type: cell-based; settings: meropenem only (baseline)
Procedure: as §1, §2

[10] = tested on: K. pneumoniae NCTC13439 VIM-1; assay: Meropenem combination MIC, broth microdilution; assay type: cell-based; settings: meropenem only (baseline)
Procedure: as §1, §2

[11] = tested on: E. coli ATCCBAA-2452 NDM-1; assay: Meropenem combination MIC, broth microdilution; assay type: cell-based; settings: meropenem only (baseline)
Procedure: as §1, §2

[12] = tested on: E. coli NCTC13476 IMP; assay: Meropenem combination MIC, broth microdilution; assay type: cell-based; settings: meropenem only (baseline)
Procedure: as §1, §2

[13] = tested on: A. baumannii SG698 NDM-1; assay: Meropenem combination MIC, broth microdilution; assay type: cell-based; settings: meropenem only (baseline)
Procedure: as §1, §2

Compound | CC50 at 24 h [1] | IC50 [2] | other results
NCCNS(=O)(=O)c1ccc(-c2ccn(S(N)(=O)=O)c2C(=O)O)cc1 [Example 36, 3-{4-[(2-Aminoethyl)sulfamoyl]phenyl}-1-sulfamoyl-1H-pyrrole-2-carboxylic acid] | > 256 µg/mL | 1010 nM | 
NS(=O)(=O)n1ccc(-n2cccc2)c1C(=O)O [Example 73, 3-Pyrrol-1-yl-1-sulfamoyl-pyrrole-2-carboxylic acid, Sodium Salt] | > 256 µg/mL | 2570 nM | 
NS(=O)(=O)n1ccc(-c2ccc(C3CCNCC3)cc2)c1C(=O)O [Example 34, 3-[4-(Piperidin-4-yl)phenyl]-1-sulfamoyl-1H-pyrrole-2-carboxylic acid hydrochloride] | > 256 µg/mL | 151 nM | 
NS(=O)(=O)n1ccc(-c2cccc(F)c2)c1C(=O)O [Example 19, 3-(3-Fluorophenyl)-1-sulfamoyl-pyrrole-2-carboxylic acid] | > 256 µg/mL | 1530 nM | 
NS(=O)(=O)n1ccc(-c2cccnc2)c1C(=O)O [Example 8, 3-(Pyridin-3-yl)-1-sulfamoyl-1H-pyrrole-2-carboxylic acid, sodium salt] | > 256 µg/mL | 448 nM | 
NS(=O)(=O)n1ccc(-c2ccncc2)c1C(=O)O [Example 9, 3-(Pyridin-4-yl)-1-sulfamoyl-1H-pyrrole-2-carboxylic acid, sodium salt] | > 256 µg/mL | 1350 nM | 
NS(=O)(=O)n1ccc(-c2ccc(F)cc2)c1C(=O)O [Example 18, 3-(4-Fluorophenyl)-1-sulfamoyl-pyrrole-2-carboxylic acid, sodium salt] | > 256 µg/mL | 725 nM | 
Nc1ccc(-c2ccn(S(N)(=O)=O)c2C(=O)O)cn1 [Example 1, 3-(6-Aminopyridin-3-yl)-1-sulfamoyl-1H-pyrrole-2-carboxylic acid] | > 256 µg/mL | 826 nM | 
Nc1ccc(-c2ccn(S(N)(=O)=O)c2-c2nnn[nH]2)cn1 [Example 77, 3-(6-Aminopyridin-3-yl)-2-(1H-tetrazol-5-yl)-1H-pyrrole-1-sulfonamide] | > 256 µg/mL | 506 nM | 
C[C@@H](O)[C@H]1C(=O)N2C(C(=O)O)=C(SCCN=CN)C[C@H]12 [Imipenem, imipenem] |  |  | Imipenem MIC V K. pneumoniae NCTC13440 VIM-1 [3]: D (D≤10); Imipenem MIC III K. pneumoniae ATCC BAA2146 NDM-1 [4]: E (E≤40); Imipenem MIC I E. coli ATCCBAA-2452 NDM-1 [5]: D (D≤10); Imipenem MIC II E. coli NCTC13476 IMP [6]: C (C≤5); Imipenem MIC IV A. baumannii SG698 NDM-1 [7]: F (F≤80)
Cn1cc(-c2ccn(S(N)(=O)=O)c2-c2nnn[nH]2)cn1 [Example 76, 3-(1-Methyl-1H-pyrazol-4-yl)-2-(1H-tetrazol-5-yl)-1H-pyrrole-1-sulfonamide] | > 256 µg/mL | 1180 nM | 
NCC(=O)N1CCC(c2ccn(S(N)(=O)=O)c2C(=O)O)CC1 [Example 62, 3-[1-(2-Aminoacetyl)-4-piperidyl]-1-sulfamoyl-pyrrole-2-carboxylic acid] | > 256 µg/mL | 1300 nM | 
NS(=O)(=O)n1ccc(-c2ccc(=O)[nH]c2)c1C(=O)O [Example 52, 3-(6-Oxo-1,6-dihydropyridin-3-yl)-1-sulfamoyl-1H-pyrrole-2-carboxylic acid, Sodium Salt] | > 256 µg/mL | 2690 nM | 
Nc1cncc(-c2ccn(S(N)(=O)=O)c2C(=O)O)c1 [Example 22, 3-(5-Amino-3-pyridyl)-1-sulfamoyl-pyrrole-2-carboxylic acid] | > 256 µg/mL | 2090 nM | 
CC(=O)N1CCC(c2ccn(S(N)(=O)=O)c2C(=O)O)CC1 [Example 58, 3-(1-Acetylpiperidin-4-yl)-1-sulfamoyl-1H-pyrrole-2-carboxylic acid] | > 256 µg/mL | 1310 nM | 
NS(=O)(=O)n1ccc(-c2cccc3ncccc23)c1C(=O)O [Example 11, 3-(5-Quinolyl)-1-sulfamoyl-pyrrole-2-carboxylic acid, sodium salt] | > 256 µg/mL | 4120 nM | 
NS(=O)(=O)n1ccc(OCC2CC2)c1C(=O)O [Example 72, 3-(Cyclopropylmethoxy)-1-sulfamoyl-pyrrole-2-carboxylic acid, Sodium Salt] | > 256 µg/mL | 3890 nM | 
C[C@@H](O)[C@H]1C(=O)N2C(C(=O)O)=C(S[C@@H]3CN[C@H](C(=O)N(C)C)C3)[C@H](C)[C@H]12 [Meropenem, meropenem] |  |  | Meropenem MIC (μg/mL) V K. pneumoniae NCTC13440 VIM-1 [8]: 1 µg/mL; Meropenem MIC (μg/mL) III K. pneumoniae ATCC BAA2146 NDM-1 [9]: 16 µg/mL; Meropenem MIC (μg/mL) VII K. pneumoniae NCTC13439 VIM-1 [10]: 0.5 µg/mL; Meropenem MIC (μg/mL) I E. coli ATCCBAA-2452 NDM-1 [11]: 1 µg/mL; Meropenem MIC (μg/mL) II E. coli NCTC13476 IMP [12]: 4 µg/mL; Meropenem MIC (μg/mL) IV A. baumannii SG698 NDM-1 [13]: 8 µg/mL
CS(=O)(=O)c1ccc(-c2ccn(S(N)(=O)=O)c2C(=O)O)cc1 [Example 5, 3-(4-Methanesulfonylphenyl)-1-sulfamoyl-1H-pyrrole-2-carboxylic acid, sodium salt] | > 256 µg/mL | 444 nM | 
NS(=O)(=O)n1ccc(-c2ccc(NS(=O)(=O)C3CC3)cc2)c1C(=O)O [Example 23, 3-[4-(Cyclopropylsulfonylamino)phenyl]-1-sulfamoyl-pyrrole-2-carboxylic acid] | > 256 µg/mL | 548 nM | 
Cn1c(N)nc2c(-c3ccn(S(N)(=O)=O)c3C(=O)O)cccc21 [Example 46, 3-(2-Amino-1-methyl-benzimidazol-4-yl)-1-sulfamoyl-pyrrole-2-carboxylic acid hydrochloride] | > 256 µg/mL | 2790 nM | 
Cn1cc(-c2ccn(S(N)(=O)=O)c2C(=O)O)cn1 [Example 6, 3-(1-Methyl-1H-pyrazol-4-yl)-1-sulfamoyl-1H-pyrrole-2-carboxylic acid, sodium salt] | > 256 µg/mL | 2860 nM | 
Cc1ccc(-c2ccn(S(N)(=O)=O)c2C(=O)O)cc1 [Example 2, 3-(p-tolyl)-1-sulfamoyl-1H-pyrrole-2-carboxylic acid, sodium salt] | > 128 µg/mL | 479 nM | 
Nc1ncc(-c2ccn(S(N)(=O)=O)c2C(=O)O)cc1F [Example 21, 3-(6-Amino-5-fluoro-3-pyridyl)-1-sulfamoyl-pyrrole-2-carboxylic acid] | > 256 µg/mL | 3360 nM | 

Source: patent publication US11459296B2, “Antibacterial compounds” (INFEX Therapeutics Limited, priority 2018, dated 2022)
